How the values were obtained:
PC3 cells [1] = experiment: Proliferation assay (cell numbers); type: cell-based, human; details: ectopic expression, stably transfected PC3 sublines, culture in 6-well plates 4-5 days
Description: The cell numbers of the parental PC3, empty pcDNA3.1 vector transfected PC3 sublines M1 and M2, and pcDNA3.1-TID-1 transfected PC3 sublines 27, 41, and 44 were counted after culture in 6-well plates for 4 days.
The cell numbers of the parental PC3, empty pCMV-Tag vector transfected PC3 sublines fM1 and fM2, and pCMV-Tag-fTID-1 transfected PC3 sublines f33, f17, and f23 were counted after culture in 6-well plates for 5 days. The proliferation and soft agar assays are described in Methods of Example 3 below.
Proliferation assay: Cells were plated onto 6-well plates in triplicate at 50,000 cells/well and cultured in RPMI 1640 medium supplemented with 10% fetal bovine serum (FBS), and 1% penicillin/streptomycin. The cells were trypsinized and counted each day afterwards for a five-day time course. The data were plotted using the GraphPad Prism software. The error bars represent SEM and they are difficult to see when SEM is very small. The cell proliferation assay was repeated 3 times and the results were very reproducible.

LNCaP = experiment: Stable transfection of LNCaP with CMV-fTID-1; type: cell-based, human; details: two different experiments
Description: The CMV-fTID-1 expression vector was also transfected into LNCaP, an androgen-responsive human prostate cancer cell line [Horoszewicz et al., Cancer Research 43:1809-18 (1983)], in two different experiments. […] The expression of the endogenous TID-1 gene was also not detected in the rat Dunning tumor cell lines (FIGS. 10A-10B) and various human prostate cancer cell lines including LNCaP, PC3, DU145, and TSU cells. […] Stable expression was observed using a CMV promoter-based expression vector. Clonal variations of stably transfected cells can be minimized by assaying multiple, (e.g., three) independent stably transfected sublines.

PC3 cells [2] = experiment: Apoptosis induction by GFP fusion constructs transfected into PC3 cells; type: cell-based, human; details: for cells expressing the GFP fusion protein: 10 days in medium including 500 μg/ml geneticin (G418); for role of domain in apoptosis induction: domain mapping / deletion mutagenesis, GFP fusions
Experimental: (§1) FIGS. 16a-16c show the apoptosis induction by TRAITS activation. […] The GFP-TRAITS-ER protein is localized primarily in cytoplasm in the absence of OHT, as visualized under green fluorescent microscope. The fusion protein was translocated into nuclei 24 hours after treatment of the cells with 300 nM OHT and then condensed in the fragmented nuclei 48 hours after the OHT treatment. The condensed and fragmented nuclei of the OHT-treated PC3 cells were then visualized by Hoechst staining. […] The PC3 cells were cultured in the absence or presence of 300 nM OHT for 72 hours prior to FACS analysis. The figure represents one of the 3 different experiments.
(§2) Vector constructions and mutagenesis: The cDNAs of rat and human TRAITS were cloned into pEGFP C1, pEGFP N3, PM and pIRES2-EGFP(Clontech) by PCR. Deletion mutagenesis of TRAITS were generated by PCR and cloned into above first three vectors. The plasmids containing ER™ domain were kindly provided by G. Evan (UCSF, San Francisco). ER™ domain was cut with BamHI/EcoRI and recloned into pEGFP-TRAITS to generate a tripartite fusion protein. All constructions were verified by sequencing and transfected using Lipofectamine (Gibco), Super Fect reagent (Qiagen) or Fugene 6 (Roche). In stable transfection, 500 μg/ml geneticin (G418) was used for selection of positive clones.
Genomic structure and mutagenesis of TRAITS: TRAITS is composed of six exons (FIG. 18) which in humans encode respectively, 35 amino acid residues, 32 amino acid residues, 46 amino acid residues, 48 amino acid residues, 85 amino acid residues, and 14 amino acid residues (see FIG. 14a for exon junctions). In an effort to determine the role of individual domains, domain mapping was performed by fusing nucleic acids encoding GFP to nucleic acids encoding fragments of the TRAITS in pEGFPN3 vectors. The vectors was then used for transient and stable transfection of PC3 cells. The ability of the various constructs to induce apoptosis was determined.

[3] = system: DNA sequence ACTTTA (T-box); experiment: Electrophoretic mobility shift assay (EMSA); type: binding; details: competed by cold T-wt but not by cold T-mut
Experimental: (§3) A non-specific complex (*) in the presence of GST-TRAITS was also formed in the presence of GST only. Labeled free DNA (F) was also indicated. […] NIH3T3 cells were transiently transfected with empty vector (PM) or vectors expressing the full-length rat TRAITS (residues 1-262 of SEQ ID NO:14), its N-terminal (residues 1-113 of SEQ ID NO:14), or its C-terminal (residues 114-262 of SEQ ID NO:14) plus pG5CAT reporter and pSV-β-gal for normalization. Assays were performed after 24 hours of transfection. The fold activation of CAT reporter is shown with S.E.M. Assays were performed in triplicate in two separate experiments.
Two oligonucleotides: T-wt: (5′-[…] GAAGCTTACGTCGCG-3′ SEQ ID NO:33) and T-mut: (5′-[…] CGAAGCTTACGTCGCG-3′ SEQ ID NO:34) were synthesized and amplified by PCR. T4 polynucleotide kinase (Promega) was used to label T-wt & T-mut by [γ-^32P] ATP (NEN). Recombinant GST-TRAITS fusion protein was incubated with 500 μg poly [dI-dC] and EMSA was performed according to the protocol provided by Gel Shift Assay System (Promega).

[4] = system: AT6.1 xenograft prostate tumor; experiment: AT6.1 prostatic xenograft tumor growth in nude mice; type: in vivo
Description: The tamoxifen pellets were implanted at the time of AT6.1 cell injection. The error bars represent S.E.M. The tamoxifen inhibition of AT6.1 tumor growth was statistically significant (p<0.005) at every time point of tumor measurement. […] The loading of total RNA was visualized by methylene blue staining. FIG. 17c is the northern blot analysis of TRAITS expression in rat prostatic tissues and cancer cell lines. The loading of total RNA was visualized by methylene blue staining. […] Affinity purified anti-human TRAITS polyclonal antibody was used in immunostaining of radical prostatectomy specimens from 8 patients with advanced prostate cancer (Gleason-score 7 to −10). […] A typical TRAITS down-regulation was shown with 20× objective (left) and the boxed area shown at high magnification (middle). A parallel staining without primary antibody (right) was conducted as a control. Blue arrows with solid line point to benign epithelial cells whereas red arrows with broken line indicate cancerous cells.
Tumor growth: To determine their tumorigenicity, AT6.1 cells were injected subcutaneously (1×10^5 cells) into 4-6 week old male nu/nu mice (NCI). […] Tumor sizes were calculated using formula V=π×h (h^23a^2)/6, a=(L((+))W)/4 (Nature, 405:354-359) and the Student's t-test (two-tailed) was performed to analyze statistical significance using the SPSS 10.0 software (SPSS Inc., Chicago, Ill.).

ventral prostate = experiment: C3(I)-TID-1 transgenic mice; type: in vivo, mouse; details: transgenic vs non-transgenic littermates
Description: To study the role of TRAITS protein in the prostate in vivo, an expression vector, C3 (I)-TID-1, was generated that expresses TRAITS under the control of the prostate C3(I) promoter [Zhang et al., Prostate, 32:16-26 (1997)]. The C3(I) promoter is androgen-dependent and active only in the ventral prostate and testis. Two transgenic mouse lines were identified by PCR amplification of the tail genomic DNA using primers specific for the TRAITS transgene. […] The C3(I)-TID-1 transgenic mice are fertile.

[5] = system: human prostate cancer cell lines (LNCaP, PC3, DU145 and TSU), rat Dunning prostate tumor cell lines, NIH3T3 and Hela; experiment: Cell death after transient transfection of TRAITS expression vectors; type: cell-based
Description: as §2
(§4) Cell death assays flow cytometry analysis: In flow cytometry analysis, cells cultured under the indicated conditions were harvested for staining with the TACS™ Annexin V-Biotin apoptosis detection kit (R & D systems). Propidium iodide was used for nuclei staining and Cy5 was conjugated to Annexin V-biotin. Apoptosis of Annexin V-positive cells was analyzed by FACS. Hoechst 33342 (Molecular Probes) was used for nuclear condensate staining and DNA fragmentation assay.
To further characterize the function of TRAITS, green fluorescent protein (GFP) was tagged to TRAITS at its N-terminal or C-terminal ends using pEGFP C1 and pEGFP N3 vector, respectively (Clontech). […]

PC3 cells [6] = experiment: Soft agar assay (anchorage-independent growth); type: cell-based, human; details: stable overexpression in PC3 sublines
Experimental: FIGS. 4A-4D show the effect of calreticulin overexpression on colony formation of PC3 cells in a soft agar assay, PC3 (FIG. 4A), Mock (FIG. 4B), Crt 35 (FIG. 4C) and Crt 59 (FIG. 4). The soft agar assay was conducted in 6-well plates. The bottom agar is 2 ml 0.6% noble agar containing 1×RPMI 1640 medium supplemented with 10% fetal bovine serum (FBS). After the preparation of bottom agar, 1 ml of 0.3% top agar containing 5,000 cells and 1×RPMI 1640 medium supplemented with 10% FBS was added to form the top layer. The assay for each PC3 subline was carried out in duplicate and was repeated at least 3 times.
Colonies with greater than 125 um in diameter were counted in the quantification. Error bars represent standard error means (SEM).
Soft agar assay: The soft agar assay was conducted in 6-well plates. The bottom agar is 2 ml 0.6% noble agar containing 1×RPMI 1640 medium supplemented with 10% FBS. After the preparation of bottom agar, 1 ml of 0.3% top agar containing 5,000 cells and 1×RPMI 1640 medium supplemented with 10% FBS was added to form the top layer. The assay for each PC3 subline was carried out in duplicate and was repeated at least 3 times.

[7] = system: CAT reporter gene expression; experiment: Mammalian two-hybrid analysis, CAT reporter assay in NIH3T3 cells; type: cell-based
Experimental: as §3
CAT reporter assays: CAT activities were assayed 24 hours after transfection. NIH3T3 cells were grown in 6-well plates and transfected using Superfect (Qiagen). For transient transfection, 2 μg of PM constructions, 2 μg of pSVβ-gal (internal control) and 2 μg of pG5CAT (Clontech) were used per well. The level of CAT protein in cell extracts was determined using a CAT ELASA kit (Roche) according to the manufacturer. Protein concentration was measured using a Dc protein Assay kit (Bio-Rad). β-Galactosidase activity was measured by incubating with ONPG (o-nitrophenyl-β-D-galactopyranoside) solution. Data are reported as means ±S.E.M. of two separate experiments performed in triplicate.

[8] = system: PC3 cells transfected with the tripartite fusion protein; experiment: FACS analysis of annexin V staining; type: cell-based, human; details: 300 nM OHT for 72 hours, cells expressing GFP-TRAITS-ER
Experimental: as §1, §4

## fTID-1: FLAG tagged TID-1 protein expressed from pCMV-Tag-fTID-1
PC3 cells [1]
  reduction in cell numbers: 2 fold
LNCaP
  recovery of clones expressing fTID-1: no LNCaP clones expressing fTID-1 were found

## EAF1: protein with sequence homology to TRAITS, SEQ ID NO:20; tested as GFP fusion
PC3 cells [2]; GFP fusion proteins from pEGFP N3, human and mouse
  cell death: cause cell death

## GST-TRAITS: E. coli-purified GST-TRAITS fusion protein
[3]
  binding to labeled T-box containing DNA: forms a DNA-protein complex

## CC/C(=C(\c1ccccc1)c1ccc(OCCN(C)C)cc1)c1ccccc1 [tamoxifen]
[4]; tamoxifen administration, parallel experiments
  growth of xenograft tumors from parental or GFP-ER transfected AT6.1 cells: no detectable influence
[4]; tamoxifen pellets implanted at cell injection, p<0.005
  growth of xenograft tumors from AT6.1 sublines expressing GFP-TRAITS-ER: significantly inhibited

## TID-1: novel testosterone regulated apoptosis inducer and tumor suppressor; transcription factor, SEQ ID NOs:14 (rat), 16 (mouse), 18 (human)
Ventral prostate
  enhancement of epithelial cell number per unit area in the ventral prostate: 2-3 fold
[5]
  programmed cell death phenotype of transfected cells: efficiently induced chromatin condensation and cell death
PC3 cells [1]
  reduction in cell numbers: 2 fold
PC3 cells [6]
  colony formation in soft agar: inhibition of the size and number of colonies
[7]; 24 hours after transfection
  transactivation of CAT reporter gene expression: more than 40 fold

## N-terminal region of TRAITS: approximately amino acids 1-113 of TID-1, fused to GFP
PC3 cells [2]
  cells expressing the GFP fusion protein: none of the cells were found to express the N-terminal fusion protein
  role of domain in apoptosis induction: necessary and sufficient for inducing apoptosis

## exon III: TRAITS fragment corresponding to amino acids 68-113 of SEQ ID NO:18, fused to GFP
PC3 cells [2]
  role of domain in apoptosis induction: both necessary and sufficient to induce apoptosis

## 4-hydroxytamoxifen [OHT]
[8]
  apoptotic cells (annexin V): 60.7%

B1: C-terminal region: remaining approximately 147-149 amino acids of TID-1 containing the transactivation domain (protein)
chain: GEGSSKIQCRLEQQQQQMWNPPRTSNLVQHSPSEDKLSPTSLMDDIERELKAEASLMDQMSSCDSSSDSRSSSSSSSEDSSSDSEDDDRSSPSGPRRYSSEHPSVSAGPQYRTSDADTTCNRLYDNSALLMSTLRSDLQLSESDSDSED
[7]; deletion of the N-terminal region
  transactivation relative to full-length (deletion mutagenesis): enhance the transactivation
PC3 cells [2]
  cells expressing the GFP fusion protein: many of the cells expressed the C-terminal fusion protein
  role of domain in apoptosis induction: not required for TRAITS to induce apoptosis

Reference: US6780984B2, “Method for prognosing cancer and the proteins involved” (Northwestern University, priority 2000, dated 2004)
